Measurements: US20080063668A1, “Nitroimidazole and terconazole composition and method” (priority 2006, published 2008)

Assays:
Test in all cases: Inhibition of bacteria growth, drug dilution tubes, anaerobic
Type in all cases: cell-based
Design in all cases: key: (+) for growth; (−) for no growth; (±) for suboptimal growth after an initial observation of growth
[1] = tested on: Bacteroides fragilis ATCC 25285
Experimental: (§1) Serial dilutions of tinidazole and terconazole were prepared by adding measured amounts of each substance to water (both individually and in combination). Seven bacterial organisms that are common pathogens in bacterial vaginosis were grown anaerobically in the medium as listed in Table 4 under a N2/H2/CO2 (85:5:10) head space atmosphere. [table] These cultures were diluted to a 0.5 McFarland standard prior to inoculation of drug dilution tubes. One (1) mL of the 0.5 McFarland preparation was inoculated to an anaerobically prepared test tube containing 0.8 mL of Difco anaerobic medium (DAMM) and 0.2 mL of appropriate diluted antimicrobial or antimicrobial combination for a total of 2 mL. The inoculated tubes were then incubated at 37° C. and monitored daily for growth. Growth was scored with a (+) for growth, (−) for no growth, and (±) for suboptimal growth after an initial observation of growth. Tinidazole is abbreviated as TNZ and terconazole is abbreviated as TER in Tables 5 through 11.

[2] = tested on: Gardnerella vaginalis ATCC 14018
Experimental: as §1

[3] = tested on: Mobiluncus curtisii var. curtisii ATCC 35241
Experimental: as §1

Measured: growth

CC(C)N1CCN(c2ccc(OCC3COC(Cn4cncn4)(c4ccc(Cl)cc4Cl)O3)cc2)CC1 (stereo not drawn) [TER, cis-1-[p[[2-(2,4-dichlorophenyl)-2-(1 H-1,2,4-triazol-1-ylmethyl)-1,3-dioxolan-4-yl]methoxy]phenyl]-4-isopropylpiperazine]
(−): [1]; TER 200 μg/ml, DAY 1 | [1]; TER 200 μg/ml, DAY 2 | [1]; TER 400 μg/ml, DAY 1 | [1]; TER 400 μg/ml, DAY 2 | [1]; TER 400 μg/ml, DAY 3 | [1]; TER 400 μg/ml, DAY 4 | [1]; TER 400 μg/ml, DAY 5 | [1]; TER 800 μg/ml, DAY 1 | [1]; TER 800 μg/ml, DAY 2 | [1]; TER 800 μg/ml, DAY 3 | [1]; TER 800 μg/ml, DAY 4 | [1]; TER 800 μg/ml, DAY 5 | [2]; TER 200 μg/ml, DAY 1 | [2]; TER 400 μg/ml, DAY 1 | [2]; TER 400 μg/ml, DAY 2 | [2]; TER 400 μg/ml, DAY 3 | [2]; TER 400 μg/ml, DAY 4 | [2]; TER 400 μg/ml, DAY 5 | [2]; TER 800 μg/ml, DAY 1 | [2]; TER 800 μg/ml, DAY 2 | [2]; TER 800 μg/ml, DAY 3 | [2]; TER 800 μg/ml, DAY 4 | [2]; TER 800 μg/ml, DAY 5 | [3]; TER 200 μg/ml, DAY 1 | [3]; TER 400 μg/ml, DAY 1 | [3]; TER 400 μg/ml, DAY 2 | [3]; TER 400 μg/ml, DAY 3 | [3]; TER 400 μg/ml, DAY 4 | [3]; TER 800 μg/ml, DAY 1 | [3]; TER 800 μg/ml, DAY 2 | [3]; TER 800 μg/ml, DAY 3 | [3]; TER 800 μg/ml, DAY 4
(+): [1]; TER 3.1 μg/ml, DAY 1 | [1]; TER 3.1 μg/ml, DAY 2 | [1]; TER 3.1 μg/ml, DAY 3 | [1]; TER 3.1 μg/ml, DAY 4 | [1]; TER 3.1 μg/ml, DAY 5 | [1]; TER 6.2 μg/ml, DAY 1 | [1]; TER 6.2 μg/ml, DAY 2 | [1]; TER 6.2 μg/ml, DAY 3 | [1]; TER 6.2 μg/ml, DAY 4 | [1]; TER 6.2 μg/ml, DAY 5 | [1]; TER 12.5 μg/ml, DAY 1 | [1]; TER 12.5 μg/ml, DAY 2 | [1]; TER 12.5 μg/ml, DAY 3 | [1]; TER 12.5 μg/ml, DAY 4 | [1]; TER 12.5 μg/ml, DAY 5 | [1]; TER 25 μg/ml, DAY 1 | [1]; TER 25 μg/ml, DAY 2 | [1]; TER 25 μg/ml, DAY 3 | [1]; TER 25 μg/ml, DAY 4 | [1]; TER 25 μg/ml, DAY 5 | [1]; TER 50 μg/ml, DAY 1 | [1]; TER 50 μg/ml, DAY 2 | [1]; TER 50 μg/ml, DAY 3 | [1]; TER 50 μg/ml, DAY 4 | [1]; TER 50 μg/ml, DAY 5 | [1]; TER 100 μg/ml, DAY 1 | [1]; TER 100 μg/ml, DAY 2 | [1]; TER 100 μg/ml, DAY 3 | [1]; TER 100 μg/ml, DAY 4 | [1]; TER 100 μg/ml, DAY 5 | [1]; TER 200 μg/ml, DAY 3 | [1]; TER 200 μg/ml, DAY 4 | [1]; TER 200 μg/ml, DAY 5 | [2]; TER 3.1 μg/ml, DAY 1 | [2]; TER 3.1 μg/ml, DAY 2 | [2]; TER 3.1 μg/ml, DAY 3 | [2]; TER 3.1 μg/ml, DAY 4 | [2]; TER 3.1 μg/ml, DAY 5 | [2]; TER 6.2 μg/ml, DAY 1 | [2]; TER 6.2 μg/ml, DAY 2 | [2]; TER 6.2 μg/ml, DAY 3 | [2]; TER 6.2 μg/ml, DAY 4 | [2]; TER 6.2 μg/ml, DAY 5 | [2]; TER 12.5 μg/ml, DAY 1 | [2]; TER 12.5 μg/ml, DAY 2 | [2]; TER 12.5 μg/ml, DAY 3 | [2]; TER 12.5 μg/ml, DAY 4 | [2]; TER 12.5 μg/ml, DAY 5 | [2]; TER 25 μg/ml, DAY 1 | [2]; TER 25 μg/ml, DAY 2 | [2]; TER 25 μg/ml, DAY 3 | [2]; TER 25 μg/ml, DAY 4 | [2]; TER 25 μg/ml, DAY 5 | [2]; TER 50 μg/ml, DAY 1 | [2]; TER 50 μg/ml, DAY 2 | [2]; TER 50 μg/ml, DAY 3 | [2]; TER 50 μg/ml, DAY 4 | [2]; TER 50 μg/ml, DAY 5 | [2]; TER 100 μg/ml, DAY 1 | [2]; TER 100 μg/ml, DAY 2 | [2]; TER 100 μg/ml, DAY 3 | [2]; TER 100 μg/ml, DAY 4 | [2]; TER 100 μg/ml, DAY 5 | [2]; TER 200 μg/ml, DAY 2 | [2]; TER 200 μg/ml, DAY 3 | [2]; TER 200 μg/ml, DAY 4 | [2]; TER 200 μg/ml, DAY 5 | [3]; TER 3.1 μg/ml, DAY 1 | [3]; TER 3.1 μg/ml, DAY 2 | [3]; TER 3.1 μg/ml, DAY 3 | [3]; TER 3.1 μg/ml, DAY 4 | [3]; TER 3.1 μg/ml, DAY 5 | [3]; TER 6.2 μg/ml, DAY 1 | [3]; TER 6.2 μg/ml, DAY 2 | [3]; TER 6.2 μg/ml, DAY 3 | [3]; TER 6.2 μg/ml, DAY 4 | [3]; TER 6.2 μg/ml, DAY 5 | [3]; TER 12.5 μg/ml, DAY 1 | [3]; TER 12.5 μg/ml, DAY 2 | [3]; TER 12.5 μg/ml, DAY 3 | [3]; TER 12.5 μg/ml, DAY 4 | [3]; TER 12.5 μg/ml, DAY 5 | [3]; TER 25 μg/ml, DAY 1 | [3]; TER 25 μg/ml, DAY 2 | [3]; TER 25 μg/ml, DAY 3 | [3]; TER 25 μg/ml, DAY 4 | [3]; TER 25 μg/ml, DAY 5 | [3]; TER 50 μg/ml, DAY 1 | [3]; TER 50 μg/ml, DAY 2 | [3]; TER 50 μg/ml, DAY 3 | [3]; TER 50 μg/ml, DAY 4 | [3]; TER 50 μg/ml, DAY 5 | [3]; TER 100 μg/ml, DAY 1 | [3]; TER 100 μg/ml, DAY 2 | [3]; TER 100 μg/ml, DAY 3 | [3]; TER 100 μg/ml, DAY 4 | [3]; TER 100 μg/ml, DAY 5 | [3]; TER 200 μg/ml, DAY 2 | [3]; TER 200 μg/ml, DAY 5 | [3]; TER 400 μg/ml, DAY 5 | [3]; TER 800 μg/ml, DAY 5
